According to US12257246B2, “Composition of 2,4,6-trifluoro-n-[6-(1-methyl-piperidin-4-carbonyl)-pyridin-2-yl[-benzamide” (CoLucid Pharmaceuticals, Inc., priority 2009, dated 2025):
“Also recorded” adds a separate entry of the source.

What was measured:
[1] = test system: neuronal protein extravasation; test: Protein extravasation assay (trigeminal ganglion stimulation); format: in vivo, rats or guinea pigs; conditions: intravenous
Experimental: Harlan Sprague-Dawley rats (225-325 g) or guinea pigs from Charles River Laboratories (225-325 g) were anesthetized with sodium pentobarbital intraperitoneally (65 mg/kg or 45 mg/kg respectively) and placed in a stereotaxic frame (David Kopf Instruments) with the incisor bar set at −3.5 mm for rats or −4.0 mm for guinea pigs. Following a midline sagital scalp incision, two pairs of bilateral holes were drilled through the skull (6 mm posterially, 2.0 and 4.0 mm laterally in rats; 4 mm posteriorly and 3.2 and 5.2 mm laterally in guinea pigs, all coordinates referenced to bregma). Pairs of stainless steel stimulating electrodes, insulated except at the ends (Rhodes Medical Systems, Inc.), were lowered through the holes in both hemispheres to a depth of 9 mm (rats) or 10.5 mm (guinea pigs) from dura. […]
A fluorescence microscope (Zeiss) equipped with a grating monchromator and a spectrophotometer was used to quantify the amount of Evans Blue dye in each sample. An excitation wavelength of approximately 535 nm was utilized and the emission intensity at 600 nm was determined. […] This facilitated the computer-controlled movement of the stage with fluorescence measurements at 25 points (500 μm steps) on each dural sample. The mean and standard deviation of the measurements were determined by the computer. […]

patients with migraine = test: Intravenous dose-finding study in acute migraine: tolerability and safety; format: in vivo, human
Experimental: The study used a prospective, randomized, double-blind, placebo-controlled design with group-sequential adaptive-treatment assignment (Olesen J et al., N Engl J Med 2004: 350: 1104-10; Hall D B et al., Contemporary Clinical Trials 2005; 26: 349-63). […] The first cohort was allocated to the 2.5 mg dose level. The dose used in subsequent cohorts depended on the headache response (moderate or severe headache reduced to mild or none at 2 hours) of the previous cohort: if 2 or less of the 4 active-treated patients had responded, the dose was increased, and if 3 or more of the 4 active-treated patients had responded, the dose was reduced. The dose adjustment rules were chosen to identify doses of Compound I with efficacy similar to or better than an oral triptan. […] The occurrence of a drug-related serious adverse event would lead to automatic suspension of the randomization pending a safety review.
Data were entered concurrently into an online electronic data capture system. Patients were discharged from the clinic after 4 h and continued to record migraine symptoms and adverse events until 24 h using a diary card.

[2] = test system: other 5-HT1 receptor subtypes (5-HT1A, 5-HT1B, 5-HT1D, 5-HT1E); conditions: cited from earlier work

CN1CCC(C(=O)c2cccc(NC(=O)c3c(F)cc(F)cc3F)n2)CC1 [Compound I, 2,4,6-trifluoro-N-[6-(1-methyl-piperidin-4-ylcarbonyl)-pyridin-2-yl]-benzamide]
inhibition of neuronal protein extravasation [1]: significantly inhibit neuronal protein extravasation | Patients with adverse event Fatigue (patients with migraine; 2.5 mg iv): 0.0% | Patients with adverse event Feeling of relaxation (patients with migraine; 2.5 mg iv): 0.0% | Patients with adverse event Paresthesia (patients with migraine; 2.5 mg iv): 0.0% | Patients with adverse event Sensation of heaviness (patients with migraine; 2.5 mg iv): 0.0% | Patients with adverse event Feeling of relaxation (patients with migraine; 5 mg iv): 0.0% | Patients with adverse event Paresthesia (patients with migraine; 5 mg iv): 0.0% | Patients with adverse event Sensation of heaviness (patients with migraine; 5 mg iv): 0.0% | Patients with adverse event Feeling of relaxation (patients with migraine; 10 mg iv): 0.0% | Patients with adverse event Fatigue (patients with migraine; 45 mg iv): 0.0% | Patients with adverse event Feeling of relaxation (patients with migraine; 45 mg iv): 0.0% | Patients with adverse event Sensation of heaviness (patients with migraine; 45 mg iv): 0.0% | patients reporting adverse events (patients with migraine; all iv doses 2.5 to 45 mg (placebo 43%)): 65% | tolerability (patients with migraine; doses above 60 mg intravenously over 20 minutes): not well tolerated | serious adverse events or withdrawals (patients with migraine; iv): no serious adverse events or withdrawals due to non-serious adverse events | vital signs, ECG, hematological and clinical chemistry parameters (patients with migraine; iv): No clinically significant changes; also recorded: no clinically significant abnormalities | tolerability (patients with migraine; iv 2.5 to 45 mg over 20 min): generally well tolerated | triptan-like chest symptoms (patients with migraine; iv infusion): No patient reported triptan-like chest symptoms; also recorded: no patient-reported chest symptoms or chest discomfort | affinity higher for 5-HT1F receptors than for other 5-HT1 receptor subtypes [2]: more than 450 fold
